Assay: Characteristic feature of the main excipients
Details: effect of excipient in donepezil film
Text: The characteristic feature of the main excipients of the present invention—In order to achieve the object of the above formulation research, it can be seen that the main excipients of the below Table 3 are essential elements.

## Cc1cc(C(C)(C)C)c(O)c(C(C)(C)C)c1 [Dibuthylhydroxytoluene]
  Occurrence of the impurity: Inhibition

## CC(O)COC[C@H]1O[C@@H]2O[C@H]3[C@H](O)[C@@H](O)[C@@H](O[C@H]4[C@H](O)[C@@H](O)[C@@H](O[C@H]5[C@H](O)[C@@H](O)[C@@H](O[C@H]6[C@H](O)[C@@H](O)[C@@H](O[C@H]7[C@H](O)[C@@H](O)[C@@H](O[C@H]8[C@H](O)[C@@H](O)[C@@H](O[C@H]1[C@H](O)[C@H]2O)O[C@@H]8COCC(C)O)O[C@@H]7COCC(C)O)O[C@@H]6COCC(C)O)O[C@@H]5COCC(C)O)O[C@@H]4COCC(C)O)O[C@@H]3COCC(C)O (some centres unmarked) [Hydroxypropylbetadex]
  Occurrence of the impurity: Inhibition

From patent publication US20160184439A1, “ORALLY DISINTEGRATING FILM PREPARATION CONTAINING DONEPEZIL OR PHARMACEUTICALLY ACCEPTABLE SALT THEREOF, AND PREPARATION METHOD THEREFOR” (SEOUL PHARMA. CO., LTD., priority 2013, published 2016)
